In paper PMC11874007, “Switching Roles—Exploring Concentration-Dependent Agonistic versus Antagonistic Behavior of Integrin Ligands” (Journal of Medicinal Chemistry, 2025):
Non-standard residues stand in square brackets, D forms with d. NMeV = CN[C@H](C(=O)O)C(C)C

Assays:
human α5β1-integrin = target: T1, human α5β1-integrin (Homo sapiens, UniProt P05556+P08648); conditions: previously published values; cited from earlier work
T1 construct: purchased R&D 3230-A5-050

human αvβ6-integrin = target: T2, human αvβ6-integrin (Homo sapiens, UniProt P06756+P18564); conditions: previously published values; cited from earlier work
T2 construct: purchased R&D 3817-AV-050
T2 sequence (P06756 31-992 limits assumed): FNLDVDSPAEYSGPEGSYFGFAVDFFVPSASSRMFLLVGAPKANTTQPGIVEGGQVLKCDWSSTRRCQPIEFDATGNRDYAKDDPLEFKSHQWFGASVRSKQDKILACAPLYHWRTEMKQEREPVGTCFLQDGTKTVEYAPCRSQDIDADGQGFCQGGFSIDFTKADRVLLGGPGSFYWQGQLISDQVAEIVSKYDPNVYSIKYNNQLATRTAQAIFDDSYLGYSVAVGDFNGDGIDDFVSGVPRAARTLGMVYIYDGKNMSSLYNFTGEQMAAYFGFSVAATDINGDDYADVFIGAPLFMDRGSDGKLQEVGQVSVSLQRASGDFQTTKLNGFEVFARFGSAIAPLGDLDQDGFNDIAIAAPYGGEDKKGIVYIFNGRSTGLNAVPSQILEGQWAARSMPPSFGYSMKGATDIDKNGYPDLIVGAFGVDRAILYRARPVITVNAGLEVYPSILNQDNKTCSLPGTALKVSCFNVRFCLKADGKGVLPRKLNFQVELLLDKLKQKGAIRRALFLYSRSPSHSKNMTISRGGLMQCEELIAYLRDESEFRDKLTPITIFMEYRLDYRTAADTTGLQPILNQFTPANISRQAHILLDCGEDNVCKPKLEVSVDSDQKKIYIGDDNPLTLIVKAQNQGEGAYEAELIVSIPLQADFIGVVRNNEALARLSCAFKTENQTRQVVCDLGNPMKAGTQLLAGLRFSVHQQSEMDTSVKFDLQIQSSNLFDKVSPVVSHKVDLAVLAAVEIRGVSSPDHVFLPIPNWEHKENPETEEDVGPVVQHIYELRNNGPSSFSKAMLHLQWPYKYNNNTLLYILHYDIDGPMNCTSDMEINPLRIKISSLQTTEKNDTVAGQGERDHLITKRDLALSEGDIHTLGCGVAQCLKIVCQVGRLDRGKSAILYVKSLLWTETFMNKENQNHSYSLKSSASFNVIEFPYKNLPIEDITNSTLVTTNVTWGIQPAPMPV
T2 sequence (P18564 22-707 limits assumed): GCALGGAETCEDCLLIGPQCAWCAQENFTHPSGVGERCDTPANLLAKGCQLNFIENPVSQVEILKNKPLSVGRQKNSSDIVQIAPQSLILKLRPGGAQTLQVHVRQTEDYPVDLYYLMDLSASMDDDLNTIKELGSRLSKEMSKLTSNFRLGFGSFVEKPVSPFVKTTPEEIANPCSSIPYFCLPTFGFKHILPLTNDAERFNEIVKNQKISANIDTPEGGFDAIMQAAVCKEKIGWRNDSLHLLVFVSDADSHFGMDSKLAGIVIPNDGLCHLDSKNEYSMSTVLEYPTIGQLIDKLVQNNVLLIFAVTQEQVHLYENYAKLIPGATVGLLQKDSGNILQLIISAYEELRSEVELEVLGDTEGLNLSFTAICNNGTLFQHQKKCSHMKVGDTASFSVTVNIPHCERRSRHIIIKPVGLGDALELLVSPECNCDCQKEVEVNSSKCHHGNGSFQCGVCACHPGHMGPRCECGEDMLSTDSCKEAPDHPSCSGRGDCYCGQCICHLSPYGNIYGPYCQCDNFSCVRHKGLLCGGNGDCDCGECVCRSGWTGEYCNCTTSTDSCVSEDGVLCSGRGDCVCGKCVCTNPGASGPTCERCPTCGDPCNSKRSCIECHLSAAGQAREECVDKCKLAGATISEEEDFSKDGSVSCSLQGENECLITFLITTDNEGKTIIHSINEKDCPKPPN

human αvβ3-integrin = target: T3, human αvβ3-integrin (Homo sapiens, UniProt P05106+P06756); conditions: previously published values; cited from earlier work
T3 construct: purchased R&D 3050-AV-050
T3 sequence (P06756 31-992 limits assumed): as the sequence (P06756 31-992 limits assumed) above
T3 sequence (P05106 27-718 limits assumed): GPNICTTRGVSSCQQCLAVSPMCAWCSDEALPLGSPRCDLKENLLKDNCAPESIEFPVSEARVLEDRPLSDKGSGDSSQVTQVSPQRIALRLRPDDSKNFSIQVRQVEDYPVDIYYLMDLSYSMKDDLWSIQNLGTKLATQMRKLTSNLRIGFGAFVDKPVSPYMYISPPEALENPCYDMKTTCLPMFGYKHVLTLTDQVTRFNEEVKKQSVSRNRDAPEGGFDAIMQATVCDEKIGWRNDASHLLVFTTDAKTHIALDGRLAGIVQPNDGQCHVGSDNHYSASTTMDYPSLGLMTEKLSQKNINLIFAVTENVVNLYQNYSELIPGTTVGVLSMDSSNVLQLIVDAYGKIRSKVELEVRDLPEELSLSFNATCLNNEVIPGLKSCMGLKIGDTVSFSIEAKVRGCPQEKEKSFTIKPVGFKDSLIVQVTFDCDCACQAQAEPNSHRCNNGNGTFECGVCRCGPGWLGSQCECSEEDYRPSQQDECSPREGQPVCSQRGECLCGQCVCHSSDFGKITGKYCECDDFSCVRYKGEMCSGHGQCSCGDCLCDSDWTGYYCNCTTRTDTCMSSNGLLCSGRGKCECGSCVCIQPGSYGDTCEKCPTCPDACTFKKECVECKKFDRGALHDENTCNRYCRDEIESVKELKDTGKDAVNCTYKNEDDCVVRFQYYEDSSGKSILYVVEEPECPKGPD

αvβ3+ M21 cells = assay: Wound scratch cell migration assay, M21 cells; format: cell-based
Method: (§1) As a biological readout for integrin signaling, we analyzed ligand effects on cell adhesion and migration by wound scratch assays (Figure 10A,B). […] Microscopical images were taken directly after wounding the cell monolayers and then after 9, 24, 48, and 72 h, respectively.
(§2) Figure 10 (A) Effect of integrin ligands on cancer cell migration. […] Microscopical measurements of wound gaps were taken directly after setting the wound scratch and then after 9, 24, 48, and 72 h, respectively. Wound scratch assays were repeated at least three times. The extent of wound gap closure [%]/cell coverage was calculated by a python script utilizing Canny’s Edge Detection algorithm as described under Materials and summarized in the corresponding histograms (see also Scheme S5 in the Supporting Information). (B) Adhesion of M21, OV-MZ-6, and HN cells in the presence of the respective integrin targeting ligand at low (1 nM) and high (1 μM) concentrations. […] Depicted are typical microscopical images of the respective cell monolayers.
(§3) The assays were performed according to a modified protocol as previously published.[94] Cells were cultivated on fibronectin-coated 12-well cell culture plates until cell monolayers reached an approximately 80% confluency. Then, the wound scratch was set utilizing a 200 μL pipet tip. Subsequently, fresh culture medium was added in the absence or presence of L1–L5 (concentration: 1 μM or 1 nM), and microscopical images (Zeiss, Oberkochen, Germany) were taken at two identical positions of the wound gap directly after wounding and then at 9, 24, 48, or 72 h of further cell cultivation. Each wound scratch assay was repeated three times. A custom python script was implemented to analyze wound gap closure over time: after cropping the images, we used the OpenCV[95] implementation of Canny’s Edge Detection Algorithm[96] to ensure reliable measurements even with variable lighting conditions.[97] As a first step, a 5 × 5 Gaussian filter was applied to remove background noise. The smoothened images were then filtered by a Sobel kernel[98] and the magnitude and direction of the intensity gradient of the images calculated. Then, a non-maximum suppression algorithm was applied to identify relevant pixels that presumably contribute to edges. In a final step, threshold hysteresis was utilized to distinguish true edges from variations in intensity or the remaining background noise. The resulting images were then segmented and binarized by use of a grid filter and analyzed with respect to cell-covered area relative to the start image of each series.

M21 cells = assay: Cell adhesion in the presence of ligand, M21 cells; format: cell-based; conditions: 1 μM
Method: as §2

α5β1+ OV-MZ-6 cells = assay: Wound scratch cell migration assay, OV-MZ-6 cells; format: cell-based; conditions: OV-MZ-6 cells
Method: as §1, §2, §3
Scheme S5. Effect of integrin ligands on cancer cell migration (control cells to Fig. 10A in the main manuscript). a) Integrin αvβ3- OV-MZ-6 cells, α5β1- M21 cells, α5β1+ and αvβ3- and […]
mages of wound gaps were taken directly after setting the wound scratch and then after […], respectively. Wound scratch assays were repeated at least 3 times. The extent of wound gap closure [%]/cell coverage was calculated by a python script utilizing Canny’s Edge Detection algorithm11 as described in the Experimental Section and summarized in the corresponding histograms.
(1 picture or pasted object on this page, not shown here)

[1] = system: FAK, p-FAK, p44/42erk-1/2, p-p44/42erk-1/2 in αvβ3+ M21 cells; assay: Western blot of FAK and p44/42erk-1/2 expression and activation, M21 cells; format: cell-based
Method: (§4) Since agonistic ligand performance requires integrin activation and signaling, by Western blot analysis, we studied whether the different ligands alter the expression levels and activation states of FAK and p44/42^(erk-1/2). For this, the respective target integrin-expressing tumor cell types were incubated with the corresponding subtype-selective ligand at a concentration of 1 μM for 24 h (Figure 8). […] Signal intensities of FAK and p44/42^(erk-1/2) expression and activation (p-FAK and p-p44/42^(erk-1/2)) on Western blots were evaluated by densitometry. Data are depicted as GAPDH-normalized fluorescence signal intensities as n-fold, by setting values obtained for the respective untreated cells to “1”. […] MAPK p44/42^(erk-1/2) expression was approximately 2.2-fold augmented, p44/42^(erk-1/2) by approximately 2.5-fold. It also raised activation of p-FAK and p-p44/42^(erk-1/2) by approximately 2.2-fold and 3.1-fold, respectively, in α5β1+ OV-MZ-6 cells. […] Additionally, it raised FAK (approximately 1.7-fold) and p-p44/42^(erk-1/2) (approximately 2.4-fold) in α5β1+ OV-MZ-6 cells.
(§5) Figure 8 Effects of ligands on cellular expression and activation of integrin-related signaling molecules FAK and p44/42^(erk-1/2). […] Signal intensities for FAK and p-FAK, respectively, were evaluated by use of the Bio-Rad Imager Gel Doc XR+ and a ChemiDoc XRS+ Systems and the software Image Lab. Shown are typical representative Western blot images and the corresponding histograms depicting GAPDH-normalized signal intensities as n-fold by setting the values obtained for untreated cells to “1” (drawn as black line). For each cell line, cutouts of identical gels are depicted.
(§6) In order to capture early and transient changes in signaling activation following ligand treatment, we next reduced the observation periods to 5, 30, or 60 min and assessed FAK expression and activation. […] Depicted are typical Western blot images and the corresponding densitometrical evaluations of GAPDH-normalized signal intensities as n-fold, by setting that of the respective untreated cell type to “1” (Figure 9). […]
(§7) The kinases (p-)p44/42^(erk-1/2) and (p-)FAK were detected as previously published.[15],[8] Briefly, cells were grown for 18 h on six-well plates in DMEM (0.45 Mio cells/well). After medium exchange, fresh medium with L1–L5 (concentration: 1.0 μM, 2 mL/well) was added, and cells were incubated for another 24 h at 37 °C. In a second series, cells were incubated with L1–L5 (1 μM or 1 nM) for 5, 30, or 60 min. Thereafter, the cellular proteins were extracted and processed by Western blotting. Proteins were visualized using the Pierce ECL chemiluminescent substrate (Thermo Fisher Scientific). Band signal intensities for (p-)p44/42^(erk-1/2) and (p-)FAK were evaluated using the Bio-Rad Imager Gel Doc XR + and ChemiDoc XRS + Systems and the software Image Lab. Differences in protein loading and blotting efficiency were normalized by reprobing the membranes with a monoclonal antibody directed to GAPDH. Signal intensities for protein bands of interest were normalized to those recorded for GAPDH. Typical Western blot images are depicted together with histograms summarizing the mean values of normalized fluorescence signal intensities as n-fold, by setting those obtained for untreated cells to “1”.

tumor angiogenesis = conditions: low dose; cited from earlier work
glioblastoma = conditions: phase II and III trials; cited from earlier work
[2] = system: FAK, p-FAK, p44/42erk-1/2, p-p44/42erk-1/2 in α5β1+ OV-MZ-6 cells; assay: Western blot of FAK and p44/42erk-1/2 expression and activation, OV-MZ-6 cells; format: cell-based; conditions: 1 μM, 5, 30 or 60 min
Method: as §4, §5, §6, §7

T1 sequence (P08648 42-995 limits assumed): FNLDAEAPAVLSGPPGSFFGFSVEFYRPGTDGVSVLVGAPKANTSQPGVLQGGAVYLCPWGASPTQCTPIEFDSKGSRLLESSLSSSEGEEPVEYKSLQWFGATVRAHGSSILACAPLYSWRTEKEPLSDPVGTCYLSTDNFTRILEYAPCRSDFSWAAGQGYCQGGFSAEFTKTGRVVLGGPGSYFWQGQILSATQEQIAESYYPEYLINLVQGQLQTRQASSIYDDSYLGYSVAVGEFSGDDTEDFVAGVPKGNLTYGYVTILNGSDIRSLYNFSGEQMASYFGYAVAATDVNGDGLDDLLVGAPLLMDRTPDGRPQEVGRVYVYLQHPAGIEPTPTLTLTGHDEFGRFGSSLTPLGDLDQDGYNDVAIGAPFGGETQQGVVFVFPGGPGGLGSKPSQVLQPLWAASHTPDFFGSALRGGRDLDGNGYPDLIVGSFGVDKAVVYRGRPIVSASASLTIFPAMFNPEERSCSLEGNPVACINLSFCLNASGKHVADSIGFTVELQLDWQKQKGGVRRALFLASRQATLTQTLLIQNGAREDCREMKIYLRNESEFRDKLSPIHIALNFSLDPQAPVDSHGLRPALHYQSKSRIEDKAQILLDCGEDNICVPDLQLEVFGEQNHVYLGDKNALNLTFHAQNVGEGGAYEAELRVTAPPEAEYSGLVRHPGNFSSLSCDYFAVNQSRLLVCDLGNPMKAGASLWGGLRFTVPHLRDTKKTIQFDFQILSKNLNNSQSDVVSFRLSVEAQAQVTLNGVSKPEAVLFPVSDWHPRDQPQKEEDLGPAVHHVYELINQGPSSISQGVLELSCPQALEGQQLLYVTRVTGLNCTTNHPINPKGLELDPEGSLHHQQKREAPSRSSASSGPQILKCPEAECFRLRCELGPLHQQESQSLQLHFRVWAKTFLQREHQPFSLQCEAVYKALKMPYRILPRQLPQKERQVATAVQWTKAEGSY
T1 sequence (P05556 21-728 limits assumed): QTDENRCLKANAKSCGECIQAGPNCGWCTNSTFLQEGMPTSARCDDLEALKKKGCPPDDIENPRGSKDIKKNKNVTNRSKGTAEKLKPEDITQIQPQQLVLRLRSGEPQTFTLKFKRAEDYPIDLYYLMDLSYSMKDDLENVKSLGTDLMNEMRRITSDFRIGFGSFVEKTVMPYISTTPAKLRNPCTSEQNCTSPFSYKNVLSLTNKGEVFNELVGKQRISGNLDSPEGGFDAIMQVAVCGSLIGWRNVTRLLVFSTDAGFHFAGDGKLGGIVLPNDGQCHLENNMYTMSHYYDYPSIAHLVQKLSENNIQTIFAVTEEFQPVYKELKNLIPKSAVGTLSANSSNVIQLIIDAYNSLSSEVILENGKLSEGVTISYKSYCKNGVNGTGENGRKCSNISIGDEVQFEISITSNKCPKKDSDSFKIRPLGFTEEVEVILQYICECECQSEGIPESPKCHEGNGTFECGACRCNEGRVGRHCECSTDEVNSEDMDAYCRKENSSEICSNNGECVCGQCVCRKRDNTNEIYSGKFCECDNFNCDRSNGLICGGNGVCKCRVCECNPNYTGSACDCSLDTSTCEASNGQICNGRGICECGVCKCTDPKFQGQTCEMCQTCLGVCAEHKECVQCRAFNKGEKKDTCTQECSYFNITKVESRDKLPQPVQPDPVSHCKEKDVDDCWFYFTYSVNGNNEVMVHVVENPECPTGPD

| Substance | IC50 (human α5β1-integrin) [nM] | IC50 (human αvβ6-integrin) [nM] | IC50 (human αvβ3-integrin) [nM] | Effect on wound gap closure / cell migration (αvβ3+ M21 cells; 1 nM) | Effect on wound gap closure / cell migration (αvβ3+ M21 cells; 1 μM) | Reduction of wound gap closure (αvβ3+ M21 cells; 1 μM, after 9 h) | Cell coverage (wound gap closure) (αvβ3+ M21 cells; 1 μM, within 72 h) | Effect on cell adhesion / attachment (M21 cells) | Effect on cell adhesion / attachment (M21 cells; listed as CIL/L2) | Effect on wound gap closure / cell migration (α5β1+ OV-MZ-6 cells; 1 nM) | Cell coverage (wound gap closure) (α5β1+ OV-MZ-6 cells; 1 μM, within 72 h) | FAK expression versus untreated cells ([1]; 1 nM, 5, 30 or 60 min) | FAK expression versus untreated cells ([1]; 1 μM, 5, 30 or 60 min) | Decrease of p-FAK levels within 60 min ([1]; both concentrations (1 nM, 1 μM)) | p-FAK levels versus untreated cells ([1]; both concentrations (1 nM, 1 μM), up to 60 min) | Effect on tumor angiogenesis (tumor angiogenesis) | Clinical efficacy (glioblastoma) | FAK expression versus untreated cells [2] |
| --- | --- | --- | --- | --- | --- | --- | --- | --- | --- | --- | --- | --- | --- | --- | --- | --- | --- | --- |
| RTDLDSLRT [linear peptide, internal standard for αvβ6, reference compound] | > 1000 | 29.5 ± 4.5 | > 1000 |  |  |  |  |  |  |  |  |  |  |  |  |  |  |  |
| c(RGDf(NMe)V) (cyclo(RGD[dF][NMeV])) [cilengitide (L2), reference compound] |  |  |  | increased wound gap closure | markedly delaying wound gap closure | approximately threefold | approximately 40% | abrogating adhesion and spreading | performed as inhibitors of cell attachment | not effective | approximately 60% | comparable to or slightly higher than in untreated | comparable to or slightly higher than in untreated | approximately threefold | almost comparable to that in untreated M21 cells | rather promoted than inhibited tumor angiogenesis | poor clinical efficacy | comparable to or slightly higher than in untreated |
